Four substances from patent US20200009118A1, “COMPOSITIONS AND METHODS FOR THE TREATMENTOF NEURODEGENERATIVE AND OTHER DISEASES” (Glialogix, Inc., priority 2017, published 2020) can be followed below.

For test [1], the system named is xCT mRNA in primary rat astrocyte cells. The experiment in a line: qPCR of xCT mRNA in primary astrocytes. The class given is cell-based. Here is the method: (§1) Primary rat astrocyte cells were purchased from All Cells (Catalog #RCTX-001F, Alameda, Calif.), thawed and resuspended in 13.4 ml of DMEM media (Catalog #12-614F, Lonza, Allendale, N.J.) supplemented with 15% v/v FBS (Catalog #F4135, Sigma-Aldrich, St. Louis, Mo.) and 560 μL aliquoted into wells in a 24-well plate. Cells were incubated at 37° C. with 5% CO2. For each qPCR experiment, 2-3 wells (approximately 42,000-63,000 cells) were transferred to a new 24-well plate with fresh astrocyte media, composed of 50% v/v DMEM, 50% v/v Neurobasal media (Catalog #12348-017), Life Technologies, supplemented with 2 mM glutamine, 300 μM L-cystine. Following 24 hours, cells were then mixed and aliquoted into 24 well plates at approximately 10,000 cells per well in the same media. Compounds to be tested were then added at the indicated concentrations and cells harvested 18 hours later by washing once with PBS (Catalog #P5493, Sigma-Aldrich) and then treated with 300 μl of StemProAccutase cell dissociation reagent (Catalog #A11105-01, Life Technologies) and incubated for 5-10 minutes at 37° C. PBS (300 μl) was added and the cells spun down in a microfuge for 5 minutes at 2,000×g at 4° C. The supernatant was removed and mRNA was isolated from the cells by using the Purelink microscale RNA extraction kit (Catalog #12183016, Life Technologies) according to the manufacturer's instructions. The mRNA resuspended in 12-22 μl of RNase-free water. cDNA was prepared by use of the Superscript VILO kit (Catalog #11755050, Life Technologies) according to the manufacturer's instructions. The cDNA was eluted in a final volume of 20 μl RNase-free water in and 4 μl was used for each qPCR reaction. qPCR reactions and primers were as described in Example 11.
(§2) To determine if tunicamycin increased levels of xCT mRNA, Tunicamycin (5 ng/ml) was added to the primary astrocyte cell cultures in astrocyte media. xCT gene expression was determined by qPCR after 18 hours of exposure to tunicamycin.
(§3) The Cycle threshold is abbreviated Ct. The change in Ct equals [Ct (minus test agent)−Ct (plus test agent)]. Changes in Ct of the test genes xCT and Lcn-2 are normalized by subtracting the change in Ct of the control gene, either gamma-actin or Hypoxanthine-guanine phosphoribosyl transferase (HPRT). Ct values are converted to absolute values by the formula: absolute value=2^^(normalized change in Ct). Absolute values are converted to percent change by multiplying the absolute value by 100.
(§4) Using the methods described in Example 11, various agents known to cause activation of neuroinflammatory cells and/or cause or reflect stress and damage to neurons, axons and/or oligodendrocytes were tested for causing an increase in xCT levels in primary rat astrocytes.
A general note: Quantitative PCR measures a nucleic acid by following its amplification.

For test [2], the system named is Lcn-2 mRNA in primary rat astrocyte cells. Kind of test: qPCR of Lcn-2 mRNA in primary astrocytes. The test is classed as cell-based. The settings on record: astrocyte media. Here is the method:
as §1, §2, §3, §4

Setting [3] is: 5 ng/ml, astrocyte media, 18 hours.
The mark [4] stands for this setting: 25 ng/ml, astrocyte media, control gene HPRT.
Where [5] appears, read: 25 ng/ml, astrocyte media, control gene gamma-actin.
[6] abbreviates: 20 ng/ml, astrocyte media, control gene gamma-actin.
The mark [7] stands for this setting: 100 ng/ml, astrocyte media, control gene gamma-actin.
Setting [8] is: 100 ng/ml, control gene gamma-actin.
The mark [9] stands for this setting: 1 ng/ml, astrocyte media, control gene HPRT.
Setting [10] is: 1 ng/ml, astrocyte media, control gene gamma-actin.
[11] abbreviates: 100 ng/ml, astrocyte media, control gene HPRT.
[12] abbreviates: 200 ng/ml, astrocyte media, control gene gamma-actin.

For the substance Tunicamycin, in test [1] (setting [3]), the “xCT, Absolute change normalized to Gamma-actin” value is reported as 56.1; the “xCT, Absolute change normalized to HPRT” value was determined as 23.1; the “xCT, Change in Ct (not normalized)” value was found to be 5.529; the “xCT, Change in Ct normalized to Gamma actin” value came to 5.809. For the same substance, in test [1] (setting [3]), the “xCT, Change in Ct normalized to HPRT” value came out at 4.530; the “xCT, Ct with agent” value was found to be 25.060; the “xCT, Percent change normalized to Gamma-actin” value was 5,606%; the “xCT, Percent change normalized to HPRT” value is given as 2,310%. Also, the “xCT expression increased by” value in test [1] (5 ng/ml, regardless of normalization to gamma-actin or HPRT) is reported as “over 2,000%”. Also, in test [1] (setting [4]), the “xCT, Change in Ct normalized to control gene” value is 4.540; the “xCT, Fold change normalized” value is reported as 23.26; the “xCT, Percent change normalized” value is 2,326%. Besides, in test [1] (setting [5]), the “xCT, Change in Ct normalized to control gene” value turned out to be 5.915; the “xCT, Fold change normalized” value was 60.34; the “xCT, Percent change normalized” value is given as 6,034%. In test [2] (5 ng/ml, 18 hours), the “Lcn-2, Absolute change normalized to Gamma-actin” value came out at 64.6; the “Lcn-2, Absolute change normalized to HPRT” value came to 32.3; the “Lcn-2, Change in Ct (not normalized)” value is reported as 5.734; the “Lcn-2, Change in Ct normalized to Gamma actin” value came out at 6.014. Also, in test [2] (5 ng/ml, 18 hours), the “Lcn-2, Change in Ct normalized to HPRT” value is recorded as 5.015; the “Lcn-2, Ct with agent” value stood at 27.123; the “Lcn-2, Percent change normalized to Gamma-actin” value is given as 6,460%; the “Lcn-2, Percent change normalized to HPRT” value was 3,230%. Besides, the “Lcn-2, Percent change normalized” value in test [2] (25 ng/ml, control gene HPRT) is reported as 2,290%. Moreover, in test [2] (25 ng/ml, control gene gamma-actin), the “Lcn-2, Percent change normalized” value is 5,940%.
Consider IL-6: inflammatory cytokine, for which, in test [1] (setting [6]), the “xCT, Change in Ct normalized to control gene” value was found to be 0.366; the “xCT, Fold change normalized” value was 1.29; the “xCT, Percent change normalized” value is listed as 129%. Moreover, in test [1] (setting [7]), the “xCT, Change in Ct normalized to control gene” value amounted to 0.380; the “xCT, Fold change normalized” value was 1.30; the “xCT, Percent change normalized” value stood at 130%. Moreover, in test [2] (20 ng/ml, control gene gamma-actin), the “Lcn-2, Percent change normalized” value is 146%. For the same substance, the “Lcn-2, Percent change normalized” value in test [2] (setting [8]) was found to be 130%.
Consider IL1-beta: inflammatory cytokine, for which the “xCT, Change in Ct normalized to control gene” value was 1.536 in test [1] (setting [9]), 1.538 in test [1] (setting [10]), 1.515 in test [1] (setting [11]) and 2.560 in test [1] (setting [7]). Besides, the “xCT, Fold change normalized” value worked out at 2.90 in test [1] (setting [9]), 2.90 in test [1] (setting [10]), 2.86 in test [1] (setting [11]) and 5.90 in test [1] (setting [7]). Moreover, the “xCT, Percent change normalized” value in test [1] (setting [9]) was 290%; in test [1] (setting [10]) it was 290%; in test [1] (setting [11]), 286%; in test [1] (setting [7]), 590%. Besides, the “Lcn-2, Percent change normalized” value in test [2] (1 ng/ml, control gene HPRT) is given as 23,480%; in test [2] (1 ng/ml, control gene gamma-actin), 23,522%; in test [2] (100 ng/ml, control gene HPRT), 9,185%; in test [2] (setting [8]), 18,958%.
Regarding Pam2CSK4, in test [1] (setting [12]), the “xCT, Change in Ct normalized to control gene” value worked out at 0.65; the “xCT, Fold change normalized” value amounted to 1.57; the “xCT, Percent change normalized” value was determined as 157%. Besides, the “Lcn-2, Percent change normalized” value in test [2] (200 ng/ml, control gene gamma-actin) is on record as 1,602%.
